IC50 data for 54 compounds are collected here from patent US12421225B2, “Heteroaromatic amide derivative and medicament containing the same” (KAKEN PHARMACEUTICAL CO., LTD., priority 2018, dated 2025).

Structures are written as SMILES.

human Nav1.7, sequence (Q15858 whole entry): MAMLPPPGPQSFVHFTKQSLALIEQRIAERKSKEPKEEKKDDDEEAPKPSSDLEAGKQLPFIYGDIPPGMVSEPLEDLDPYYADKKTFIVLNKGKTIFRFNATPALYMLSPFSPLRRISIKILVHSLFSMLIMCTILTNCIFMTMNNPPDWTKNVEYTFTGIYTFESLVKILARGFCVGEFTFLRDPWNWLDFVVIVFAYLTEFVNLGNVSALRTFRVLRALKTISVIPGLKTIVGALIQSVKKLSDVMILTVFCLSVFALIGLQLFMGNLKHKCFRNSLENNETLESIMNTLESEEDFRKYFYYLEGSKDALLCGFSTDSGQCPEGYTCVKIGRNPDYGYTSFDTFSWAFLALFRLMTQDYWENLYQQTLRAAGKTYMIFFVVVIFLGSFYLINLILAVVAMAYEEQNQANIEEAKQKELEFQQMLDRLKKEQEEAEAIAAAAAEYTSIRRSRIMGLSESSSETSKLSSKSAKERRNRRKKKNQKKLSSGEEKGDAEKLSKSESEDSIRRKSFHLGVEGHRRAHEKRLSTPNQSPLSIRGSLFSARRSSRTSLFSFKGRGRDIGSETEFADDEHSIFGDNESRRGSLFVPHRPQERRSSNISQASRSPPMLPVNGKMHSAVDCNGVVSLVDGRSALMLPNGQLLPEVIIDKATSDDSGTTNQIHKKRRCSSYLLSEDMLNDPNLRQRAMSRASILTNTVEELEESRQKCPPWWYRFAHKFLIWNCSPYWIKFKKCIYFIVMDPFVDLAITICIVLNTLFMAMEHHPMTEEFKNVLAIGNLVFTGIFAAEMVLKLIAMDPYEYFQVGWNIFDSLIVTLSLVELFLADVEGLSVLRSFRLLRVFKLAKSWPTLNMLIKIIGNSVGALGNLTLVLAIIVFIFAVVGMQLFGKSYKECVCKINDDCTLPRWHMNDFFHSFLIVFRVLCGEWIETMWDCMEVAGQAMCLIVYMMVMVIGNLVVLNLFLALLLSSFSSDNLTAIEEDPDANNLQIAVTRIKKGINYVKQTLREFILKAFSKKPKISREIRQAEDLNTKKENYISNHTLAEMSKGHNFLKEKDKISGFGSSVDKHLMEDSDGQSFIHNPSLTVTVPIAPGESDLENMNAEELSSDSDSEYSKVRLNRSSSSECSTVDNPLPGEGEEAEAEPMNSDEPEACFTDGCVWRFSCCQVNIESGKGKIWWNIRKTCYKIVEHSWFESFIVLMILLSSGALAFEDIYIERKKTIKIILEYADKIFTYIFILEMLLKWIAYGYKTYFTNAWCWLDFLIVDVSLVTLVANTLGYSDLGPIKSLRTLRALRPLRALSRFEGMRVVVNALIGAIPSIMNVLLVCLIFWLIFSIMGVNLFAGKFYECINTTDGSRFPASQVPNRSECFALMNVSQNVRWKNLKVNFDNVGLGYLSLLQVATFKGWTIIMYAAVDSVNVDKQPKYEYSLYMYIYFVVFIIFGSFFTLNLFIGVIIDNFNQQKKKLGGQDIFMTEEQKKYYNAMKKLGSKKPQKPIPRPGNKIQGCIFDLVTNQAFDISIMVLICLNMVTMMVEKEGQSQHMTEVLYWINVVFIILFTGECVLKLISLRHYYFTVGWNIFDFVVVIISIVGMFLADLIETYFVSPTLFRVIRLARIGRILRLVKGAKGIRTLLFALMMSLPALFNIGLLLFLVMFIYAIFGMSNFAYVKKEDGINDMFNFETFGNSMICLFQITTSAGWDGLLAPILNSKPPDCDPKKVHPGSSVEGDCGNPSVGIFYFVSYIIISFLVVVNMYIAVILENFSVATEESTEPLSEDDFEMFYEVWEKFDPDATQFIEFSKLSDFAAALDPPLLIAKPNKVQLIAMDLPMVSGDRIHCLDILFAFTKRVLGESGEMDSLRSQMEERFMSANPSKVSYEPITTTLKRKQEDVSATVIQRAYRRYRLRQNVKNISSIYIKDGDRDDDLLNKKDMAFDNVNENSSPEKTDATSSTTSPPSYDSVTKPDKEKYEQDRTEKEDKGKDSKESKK
human Nav1.7, sequence (Q07699 19-218 partner): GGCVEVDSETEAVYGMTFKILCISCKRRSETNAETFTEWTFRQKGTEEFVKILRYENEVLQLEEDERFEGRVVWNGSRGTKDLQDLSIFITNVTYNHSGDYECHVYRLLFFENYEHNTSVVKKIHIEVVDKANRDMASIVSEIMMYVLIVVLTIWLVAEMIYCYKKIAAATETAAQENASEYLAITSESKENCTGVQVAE

The first assay has as its target human Nav1.7 (Homo sapiens (Human), UniProt Q15858). The experiment in a line: Human Nav1.7 inhibitory activity evaluation (automated patch clamp QPatch16X, HEK293A cells stably expressing human Nav1.7 and human Navβ1). The format is cell-based. The conditions noted are these: HEK293A cells stably expressing human Nav1.7 and human Navβ1, automated patch clamp QPatch16X. As for the experimental part: Test Example 1: Human Nav1.7 Inhibitory Activity Evaluation
A cell line in which human Nav1.7 and human Navβ1 subunits were stably expressed in HEK293A cells was used. Dulbecco's Modified Eagle Medium (DMEM) supplemeted with 10% fetal bovine serum, 600 μg/ml geneticin, and 2 μg/ml blasticidin S were used as culture medium under the conditions of 37° C. and 5% CO2 in T175 flasks to carry out culturing. When 60-80% confluence was reached, the cells were detached and a cell suspension of about 0.5-5.0×10^6 cells/mL was prepared. The amount of current through human Nav1.7 was recorded using a fully automatic patch clamp device QPatch16X (Sophion Biosciences) at room temperature. As the extracellular solution, the solution of 145 mM NaCl, 4 mM KCl, 1 mM MgCl2, 2 mM CaCl2, 10 mM Glucose, 10 mM 4-(2-hydroxyethyl)-1-piperazine ethanesulfonic acid (HEPES) at pH 7.4 was used. As the intracellular solution, the solution of 135 mM CsF, ⅕ mM glycol ether diaminetetraacetic acid (EGTA)/CsOH, 10 mM HEPES, 10 mM NaCl at pH 7.3 was used. The test compounds were dissolved in dimethyl sulfoxide (DMSO) and diluted with the extracellular solution to attain the DMSO concentration of 0.1% at the time of assay.
The current response was obtained at a sampling frequency of 25 kHz, and noise was removed with a 3 kHz low-pass filter. The holding potential was −100 mV. Correction of the leakage current was carried out by applying a step pulse of −120 mV before the test pulse. In order to investigate inhibitory action of the test compound, the following test pulse was given: Namely, after depolarizing pulse of −10 mV was applied for 50 milliseconds, it was fixed at −120 mV for 500 milliseconds; a potential at which about 30-40% of the channel was inactivated was maintained for 15 seconds, then fixed again at −120 mV for 100 milliseconds, and finally a −10 mV depolarization pulse was given for 50 milliseconds. Test pulses were given before and after the test compound addition.
The inhibitory activity of the test compound was determined based on the amount of inward current generated by the second depolarization pulse, and the 50% inhibitory concentration (IC50) was calculated from the concentration-response curve.
Background: The patch-clamp technique gives a direct electrical read-out from membranes.
For `O=C(NC1COc2cccc(C3CC3)c2C1)c1cn2c(n1)CCC(C(F)(F)F)C2` (stereo not drawn) [Example 10], the IC50 is under 10 µM.
Still for that read-out and setting: as for `COc1ccc2c(c1)CC(NC(=O)c1cn3c(n1)CCC(C(F)(F)F)C3)CO2` (stereo not drawn) [Example 13], the figure is under 10 µM; as for `COc1cccc(-c2c(C(=O)N[C@H]3COc4ccccc4C3)nc3n2CC(C(F)(F)F)CC3)n1` (stereo partly drawn) [Example 15], under 1 µM; as for `O=C(N[C@H]1COc2ccc(Cl)cc2C1)c1nc2n(c1-c1ccccn1)CCCC2` [Example 18, (R)—N-(6-chlorochroman-3-yl)-3-(pyridin-2-yl)-5,6,7,8-tetrahydroimidazo[1,2-a]pyridine-2-carboxamide], under 1 µM.
Compound `O=C(N[C@H]1COc2ccccc2C1)c1cn2c(n1)CCC(C1CCCC1)C2` (stereo partly drawn) [Example 24] showed a half-inhibitory concentration (IC50) of under 1 µM.
As for `O=C(c1cn2c(n1)CCC(C1CCCCC1)C2)N1CCC1Cc1ccccc1` (stereo not drawn) [Example 31], the IC50 was under 1 µM.
Same read-out and setting: the same measure for `O=C(N[C@H]1COc2ccccc2C1)c1cn2c(n1)CCC(NCc1ccccc1)C2` (stereo partly drawn) [Example 42]: under 10 µM.
Still for that read-out and setting: as for `CN1Cc2nc(C(=O)N[C@H]3COc4ccccc4C3)cn2CC1c1ccc(F)c(F)c1` (stereo partly drawn) [Example 45], the figure is under 10 µM; as for `CC(C)CCC1Cn2cc(C(=O)N[C@H]3COc4ccccc4C3)nc2CN1C` (stereo partly drawn) [Example 50], under 10 µM.
On to `O=C(N[C@H]1COc2ccccc2C1)c1cn2c(n1)CNC(CCc1ccc(F)cc1)C2` (stereo partly drawn) [Example 53], for which the IC50 was under 10 µM.
Same read-out and setting: as for `CN1Cc2nc(C(=O)N[C@H]3COc4ccccc4C3)cn2CC1CCc1ccc(F)cc1` (stereo partly drawn) [Example 54], the figure is under 10 µM; as for `O=C(N[C@H]1COc2ccccc2C1)c1cn2c(n1)CNC(c1ccccc1)C2` (stereo partly drawn) [Example 56], under 10 µM.
Still for that read-out and setting: the same measure for `CN1Cc2nc(C(=O)N3CC(Oc4cccc(C(F)(F)F)n4)C3)cn2CC1c1ccccc1` (stereo not drawn) [Example 63]: under 10 µM; for `COc1cccc(-c2c(C(=O)N[C@H]3COc4ccccc4C3)nn3c2CCCC3)n1` [Example 69]: under 10 µM; for `COc1cc(C2CCn3nc(C(=O)N[C@H]4COc5ccc(C#N)cc5C4)cc3O2)ccn1` (stereo partly drawn) [Example 73]: under 10 µM.
Still for that read-out and setting: the same measure for `O=C(N[C@H]1COc2ccc(CO)cc2C1)c1cc2n(n1)CCC(c1ccccc1F)O2` (stereo partly drawn) [Example 82]: under 10 µM.
Take `C[C@H]1CCn2nc(C(=O)N[C@H]3COc4ccc(Br)cc4C3)cc2O1` [Example 88]: the IC50 was under 1 µM.
On the same count and under the same terms, the same measure for `C[C@@H]1CCn2nc(C(=O)N[C@H]3COc4ccc(Br)cc4C3)cc2O1` [Example 89]: under 1 µM.
On the same count and under the same terms, as for `CCC1CCn2nc(C(=O)N[C@H]3COc4ccc(-c5cnc(OC)nc5)cc4C3)cc2O1` (stereo partly drawn) [Example 93], the figure is under 1 µM; as for `N#Cc1ccc2c(c1)C[C@@H](NC(=O)c1cc3n(n1)CCC(COCc1ccccc1)O3)CO2` (stereo partly drawn) [Example 99], under 1 µM.
In turn, `N#Cc1ccc2c(c1)C[C@@H](NC(=O)c1cc3n(n1)CCC(COCc1cccc(F)c1)O3)CO2` (stereo partly drawn) [Example 104] showed an IC50 of under 1 µM.
Still for that read-out and setting: the same measure for `O=C(N[C@H]1COc2ccc(Cl)cc2C1)c1cc2n(n1)CCC(COCC1CC1)O2` (stereo partly drawn) [Example 106]: under 1 µM; for `N#Cc1ccc(-c2ccc3c(c2)C[C@@H](NC(=O)c2cc4n(n2)CCC(COCC2CC2)O4)CO3)cn1` (stereo partly drawn) [Example 107]: under 10 µM.
On the same count and under the same terms, the same measure for `N#Cc1ccc2c(c1)C[C@@H](NC(=O)c1cc3n(n1)CCC(COC(C(F)(F)F)C(F)(F)F)O3)CO2` (stereo partly drawn) [Example 116]: under 1 µM.
Same read-out and setting: as for `N#Cc1ccc2c(c1)C[C@@H](NC(=O)c1cc3n(n1)CCC(CSc1ccccc1)O3)CO2` (stereo partly drawn) [Example 119], the figure is under 1 µM.
As for `O=C(N[C@H]1COc2ccc(Cl)cc2C1)c1cc2n(n1)CCC(COc1ccncc1)O2` (stereo partly drawn) [Example 120], the half-inhibitory concentration (IC50) is under 10 µM.
On the same count and under the same terms, as for `CN(Cc1ccccc1)CC1CCn2nc(C(=O)N[C@H]3COc4ccc(Cl)cc4C3)cc2O1` (stereo partly drawn) [Example 121], the figure is under 10 µM; as for `N#Cc1ccc(-c2ccc3c(c2)C[C@@H](NC(=O)c2cc4n(n2)CCC(COCC(F)(F)F)O4)CO3)cn1` (stereo partly drawn) [Example 132], under 10 µM.

Staying with this assay, now noted: human Nav1.7, automated patch clamp.
For `N#CC1(COCC2CCn3nc(C(=O)N[C@H]4COc5ccc(C(F)(F)F)cc5C4)cc3O2)CC1` (single isomer, unassigned) [554 (isomer B)], the IC50 is under 10 µM.
On the same count and under the same terms, the same measure for `O=C(N[C@H]1COc2ccc(C(F)(F)F)cc2C1O)c1cc2n(n1)CC(CCOCC(F)(F)F)O2` (single isomer, unassigned) [600 (isomer A)]: under 10 µM; for `O=C(N[C@H]1COc2ccc(CC(F)F)cc2C1)c1cc2n(n1)CCC(COCC(F)(F)F)CO2` (single isomer, unassigned) [601 (isomer A)]: under 10 µM.
Still for that read-out and setting: as for `O=C(N[C@H]1COc2ccc(C(F)(F)F)cc2C1O)c1cc2n(n1)CC(CCCOCC(F)(F)F)O2` (single isomer, unassigned) [603 (isomer A)], the figure is under 1 µM; as for `N#Cc1ccc2c(c1)C[C@@H](NC(=O)c1cc3n(n1)CC(CCCOCC(F)F)O3)CO2` (single isomer, unassigned) [604 (isomer B)], under 10 µM.
Still for that read-out and setting: as for `O=C(N[C@H]1COc2ccc(C(F)(F)F)cc2C1O)c1cc2n(n1)CC(CCCOCC(F)F)O2` (single isomer, unassigned) [610 (isomer B)], the figure is under 10 µM; as for `O=C(N[C@H]1COc2ccc(C(F)(F)F)cc2C1O)c1cc2n(n1)CC(CCCOCC(F)(F)F)O2` (single isomer, unassigned) [616 (isomer B)], under 10 µM.
In turn, `N#Cc1ccc2c(c1)C(F)[C@@H](NC(=O)c1cc3n(n1)CCC(COCC1CC1)O3)CO2` (single isomer, unassigned) [617 (isomer B)] had an IC50 of under 10 µM.
On the same count and under the same terms, the same measure for `O=C(N[C@H]1COc2ccc(C(F)(F)F)cc2C1O)c1cc2n(n1)CC(CCOCC1CC1)O2` (single isomer, unassigned) [636 (isomer A)]: under 1 µM; for `O=C(N[C@H]1COc2ccc(C(F)(F)F)cc2C1O)c1cc2n(n1)CC(CSCC(F)(F)F)O2` (single isomer, unassigned) [641 (isomer A)]: under 10 µM.
The same measure, in the same setting: the same measure for `O=C(N[C@H]1COc2ccc(C(F)(F)F)cc2C1O)c1cc2n(n1)CCC(OCCOCC(F)(F)F)CO2` (single isomer, unassigned) [Example 681]: under 10 µM.
Still for that read-out and setting: the same measure for `N#Cc1ccc2c(c1)C[C@@H](NC(=O)c1cc3n(n1)C[C@H](CC1CCOCC1)O3)CO2` (single isomer, unassigned; isomer a) [577(isomer A)]: under 10 µM; for `O=C(N[C@H]1COc2ccc(CC(F)F)cc2C1)c1cc2n(n1)C[C@H](CC1CCOCC1)O2` (single isomer, unassigned; isomer a) [590(isomer A)]: under 1 µM; for `COC1c2cc(C(F)(F)F)ccc2OC[C@@H]1NC(=O)c1cc2n(n1)CCC(COCC(F)(F)F)O2` (single isomer, unassigned; isomer a) [598(isomer A)]: under 1 µM.
The compound `CC(C)(F)C1CCn2nc(C(=O)N[C@H]3COc4ccc(Cl)cc4C3)cc2O1` (stereo partly drawn) [Example 166] came in with an IC50 of under 1 µM.
The same measure, in the same setting: the same measure for `COc1ncc(-c2ccc3c(c2)C[C@@H](NC(=O)c2cc4n(n2)CCC(C(F)(F)F)O4)CO3)cn1` (stereo partly drawn) [Example 176]: under 10 µM.
Turning to `CC1(C)CCn2nc(C(=O)N[C@H]3COc4ccc(-c5ccc(C#N)nc5)cc4C3)cc2O1` [Example 179], the IC50 was under 10 µM.
The same measure, in the same setting: the same measure for `N#Cc1ccc2c(c1)C[C@@H](NC(=O)c1cc3n(n1)CCC1(CCC1)O3)CO2` [Example 180]: under 10 µM; for `O=C(N[C@H]1COc2ccc(COCC(F)(F)F)cc2C1)c1cc2n(n1)CC(C(F)(F)F)O2` (stereo partly drawn) [Example 183]: under 10 µM; for `O=C(N[C@H]1COc2ccc(CC(F)(F)F)cc2C1)c1cc2n(n1)CC(COCC(F)(F)F)O2` (stereo partly drawn) [Example 191]: under 1 µM.
Same read-out and setting: as for `Cc1cnc(-c2ccc3c(c2)C[C@@H](NC(=O)c2cc4n(n2)CC(COCC(F)(F)F)O4)CO3)cn1` (stereo partly drawn) [Example 193], the figure is under 10 µM; as for `O=C(N[C@H]1COc2ccc(CC(F)F)cc2C1)c1cc2n(n1)CC(CCOC(F)(F)F)O2` (stereo partly drawn) [Example 210], under 1 µM.
`O=C(N[C@H]1COc2ccc(CCOC(F)F)cc2C1)c1cc2n(n1)CC(CCOC(F)F)O2` (stereo partly drawn) [Example 216]: the IC50 is under 1 µM.
As to `O=C(N[C@H]1COc2ccc(C(F)(F)F)cc2C1)c1cc2n(n1)CC(CCN1CC(F)(F)C1)O2` (stereo partly drawn) [Example 235], the IC50 is under 10 µM.
Same read-out and setting: as for `O=C(N[C@H]1COc2ccc(CCOC(F)F)cc2C1)c1cc2n(n1)CC(CCN1CC(F)(F)C1)O2` (stereo partly drawn) [Example 237], the figure is under 1 µM; as for `O=C(N[C@H]1COc2ccc(CCOC(F)(F)F)cc2C1)c1cc2n(n1)CC(CCN1CC(F)(F)C1)O2` (stereo partly drawn) [Example 239], under 1 µM.

In general, IC50 refers to the concentration at which inhibition is half-maximal. A lower IC50 goes with greater potency in that assay.
